Assay results from the supplement of paper PMC10307832.

Experiments:
Experiment in all cases: relative viability (nuclei count vs DMSO), 5 days (fraction); higher = more cells survive
[1] = compound: C(C(=O)C(=O)O)Br [Bromopyruvate] + CC(=O)c1c(C)c2cnc(Nc3ccc(N4CCNCC4)cn3)nc2n(C2CCCC2)c1=O [Palbociclib] (partner 0.5 µM)
Method in brief: (§1)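 For relative viability, nuclei counts in treated wells were divided by those in vehicle wells. Lung cancer cell lines had been pin-tool dosed in 1536-well plates the day after seeding and cultured for 5 days, then fixed and stained in one step (final 0.05% Triton X-100, 1% formaldehyde, 1 ug/ml Hoechst) and imaged at 4×. Doses were one drug alone or a fixed anchor-drug dose plus five library-drug doses (not always all listed) in √10 steps, and values are duplicate-plate medians.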

[2] = compound: C(C(=O)C(=O)O)Br [Bromopyruvate] + C[C@@H](Oc1cc(-c2cnn(C3CCNCC3)c2)cnc1N)c1c(Cl)ccc(F)c1Cl [Crizotinib] (partner 1 µM)
Method in brief: as §1

[3] = compound: CC(O)(CS(=O)(=O)c1ccc(F)cc1)C(=O)Nc1ccc(C#N)c(C(F)(F)F)c1 [Bicalutamide] + CC(C)C[C@H](NC(=O)[C@H](Cc1ccccc1)NC(=O)c1cnccn1)B(O)O [Bortezomib] (partner 0.002 µM)
Method in brief: as §1

[4] = compound: CC(O)(CS(=O)(=O)c1ccc(F)cc1)C(=O)Nc1ccc(C#N)c(C(F)(F)F)c1 [Bicalutamide] + O=C(CCCCCCC(=O)Nc1ccccc1)NO [Vorinostat] (partner 1 µM)
Method in brief: as §1

Cell Line | relative viability ([1]; first compound 1 µM) | relative viability ([1]; first compound 3.162 µM) | relative viability ([1]; first compound 10 µM) | relative viability ([1]; first compound 31.62 µM) | relative viability ([1]; first compound 100 µM) | relative viability ([2]; first compound 1 µM) | relative viability ([2]; first compound 3.162 µM) | relative viability ([2]; first compound 31.62 µM) | relative viability ([2]; first compound 100 µM) | relative viability ([3]; first compound 0.08 µM) | relative viability ([3]; first compound 0.253 µM) | relative viability ([3]; first compound 0.8 µM) | relative viability ([3]; first compound 2.53 µM) | relative viability ([4]; first compound 0.08 µM) | relative viability ([4]; first compound 0.253 µM) | relative viability ([4]; first compound 0.8 µM) | relative viability ([4]; first compound 2.53 µM) | relative viability ([2]; first compound 10 µM)
HOP-62 | 0.432 | 0.443 | 0.416 | 0.343 | 0.341 | 0.923 | 0.876 | 0.952 | 0.65 | 0.683 | 0.527 | 0.725 | 0.92 | 0.783 | 0.606 | 0.689 | 0.52 | 
LC-2-ad | 0.528 | 0.487 | 0.466 | 0.488 | 0.499 | 0.218 | 0.47 | 0.52 | 0.469 | 1.07 | 1.05 | 0.997 | 1.01 | 0.767 | 0.679 | 0.67 | 0.556 | 0.458
LCLC-97TM1 | 0.203 | 0.21 | 0.276 | 0.239 | 0.214 |  |  | 0.427 | 0.186 | 0.726 | 0.543 | 0.635 | 0.461 | 0.728 | 0.644 | 0.972 | 0.54 | 0.377
LCLC-103H | 0.505 | 0.486 | 0.455 | 0.415 | 0.528 | 1.02 | 1.06 | 1.14 | 1.2 | 1.1 | 1.08 | 1.15 | 1 | 0.791 | 0.679 | 0.914 | 0.744 | 1.05
LOU-NH91 | 0.53 | 0.545 | 0.494 | 0.544 | 0.587 | 0.769 | 0.708 | 0.76 | 0.724 | 0.53 | 0.493 | 0.441 | 0.523 | 0.985 | 0.723 | 0.971 | 0.893 | 0.712
LU99A | 0.404 | 0.414 | 0.478 | 0.493 | 0.2 | 0.488 | 0.689 | 0.554 | 0.672 | 0.995 | 0.964 | 1.24 | 0.846 | 0.461 | 0.436 | 0.626 | 0.43 | 0.591
LXF-289 | 0.625 | 0.649 | 0.629 | 0.637 | 0.638 | 0.841 | 0.807 | 0.791 | 0.833 | 0.98 | 0.908 | 1.02 | 0.963 | 0.818 | 0.734 | 0.797 | 0.698 | 0.786
NCI-H23 | 0.466 | 0.482 | 0.601 | 0.572 | 0.387 | 0.386 | 0.514 | 0.494 | 0.423 | 0.964 | 1.03 | 1.49 | 0.786 | 0.758 | 0.498 | 0.697 | 0.465 | 0.514
NCI-H322M | 0.463 | 0.438 | 0.447 | 0.421 | 0.454 | 0.958 | 0.804 | 0.806 | 0.943 | 1.13 | 1.32 | 1.4 | 1.35 | 0.858 | 0.898 | 0.995 | 1.11 | 0.948
NCI-H441 | 0.242 | 0.242 | 0.256 | 0.222 | 0.255 | 0.884 | 0.739 | 0.82 | 0.337 | 0.566 |  | 0.531 | 0.398 | 0.924 | 0.755 | 0.778 | 0.751 | 0.661
NCI-H460 | 0.161 | 0.247 | 0.148 | 0.196 | 0.186 | 0.771 | 0.921 | 0.919 | 0.714 | 1.15 | 1.09 | 1.35 | 1.12 | 0.763 | 0.439 | 0.92 | 0.779 | 1.09
NCI-H520 | 0.235 | 0.209 | 0.228 | 0.232 | 0.267 | 0.716 | 0.707 | 0.685 | 0.673 | 0.576 | 0.391 | 0.96 | 0.432 | 0.831 | 0.728 | 0.881 | 0.596 | 0.737
NCI-H647 | 0.4 | 0.312 | 0.466 | 0.386 | 0.506 | 1.05 | 1.18 | 1.16 | 1.1 | 0.973 | 0.96 | 1.4 | 0.903 | 0.474 | 0.655 | 0.575 | 0.435 | 1.25
NCI-H650 | 0.385 | 0.306 | 0.316 | 0.338 | 0.335 | 0.7 | 0.721 | 0.634 | 0.711 | 0.907 | 0.87 | 0.918 | 0.553 | 0.449 | 0.518 | 0.513 | 0.367 | 0.678
NCI-H661 | 0.401 | 0.387 | 0.378 | 0.403 | 0.428 | 1.05 | 0.897 | 1.12 | 1.11 | 0.84 | 0.931 | 0.81 | 0.849 | 0.768 | 0.805 | 0.771 | 0.806 | 0.854
NCI-H727 | 0.702 | 0.654 | 0.663 | 0.646 | 0.648 | 0.996 | 0.89 | 0.739 | 0.83 | 0.884 | 0.709 | 0.968 | 0.626 | 1.38 | 1.08 | 1.24 | 1.19 | 0.844
